# According to ChEMBL document CHEMBL1201862, “PubChem BioAssay data set” (2004):
#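 96-well plates; 48 h exposure; 5 concentrations. Endpoints by linear interpolation between flanking doses. Not reached: highest tested concentration assigned. The concentration for 50% growth inhibition is given as GI50.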 The source made the active and inactive calls. Rule as the data show it: active = GI50 up to about 1.1 µM and inactive = higher.
# How the values were obtained:
# Experiment in all cases: NCI tumour cell line growth inhibition, 48 h
# [1] = test system: 786-0
# [2] = test system: A498
# [3] = test system: A549
# [4] = test system: ACHN
# [5] = test system: BT-549
# [6] = test system: CCRF-CEM
# [7] = test system: COLO 205
# [8] = test system: HCT-116
# [9] = test system: HCT-15
# [10] = test system: MDA-MB-435
# [11] = test system: OVCAR-8
# [12] = test system: SF-268
# [13] = test system: SF-295
# [14] = test system: SK-MEL-28
# [15] = test system: SK-MEL-5
# [16] = test system: SK-OV-3
# [17] = test system: SN12C
# [18] = test system: SNB-75
# [19] = test system: SR
# [20] = test system: UACC-62
SMILES,GI50 [1],GI50 [2],GI50 [3],GI50 [4],GI50 [5],GI50 [6],GI50 [7],GI50 [8],GI50 [9],GI50 [10],GI50 [11],GI50 [12],GI50 [13],GI50 [14],GI50 [15],GI50 [16],GI50 [17],GI50 [18],GI50 [19],GI50 [20]
C=C1C(=O)OC2C1CCC(C)C1C=CC(=O)C12C (configuration not stated),1.85 µM (inactive),12.1 µM (inactive),7.76 µM (inactive),1.73 µM (inactive),1.63 µM (inactive),1.34 µM (inactive),2.17 µM (inactive),1.74 µM (inactive),1.82 µM,1.73 µM (inactive),2.06 µM (inactive),8.61 µM (inactive),6.81 µM (inactive),2.05 µM (inactive),3.33 µM (inactive),28 µM (inactive),3.33 µM (inactive),8.15 µM (inactive),1.51 µM (inactive),1.79 µM (inactive)
COc1ccccc1C1c2cc3c(cc2OC2(OC)COC(=O)C12)OCO3 (configuration not stated),19.1 µM (inactive),6.59 µM (inactive),17.4 µM (inactive),22.2 µM (inactive),17.9 µM (inactive),12.9 µM (inactive),6.56 µM (inactive),6.98 µM (inactive),5.33 µM,2.27 µM (inactive),24.3 µM (inactive),14.3 µM (inactive),13.2 µM (inactive),7.53 µM (inactive),7.19 µM (inactive),18.8 µM (inactive),18.7 µM (inactive),7.16 µM (inactive),3.8 µM (inactive),6.04 µM (inactive)
CC[C@@]1(O)C(=O)OCc2c1cc1n(c2=O)Cc2c-1nc1ccccc1c2/C=N\NC(=O)C(N)CS (some centres not stated),0.51 µM (active),2.55 µM (inactive),2 µM (inactive),0.262 µM (active),10.8 µM (inactive),0.0446 µM (active),41.4 µM (inactive),1.7 µM (inactive),3.83 µM,5.36 µM (inactive),1.09 µM (active),0.186 µM (active),0.501 µM (active),5.5 µM (inactive),1.13 µM (inactive),1.91 µM (inactive),0.116 µM (active),0.573 µM (active),0.0373 µM (active),0.0614 µM (active)
C=CCCC(=O)CC(O)(C(F)(F)F)C(F)(F)F,> 100 µM (inactive),> 100 µM (inactive),> 100 µM (inactive),> 100 µM (inactive),> 100 µM (inactive),> 100 µM (inactive),> 100 µM (inactive),> 100 µM (inactive),> 100 µM,> 100 µM (inactive),> 100 µM (inactive),,> 100 µM (inactive),> 100 µM (inactive),> 100 µM (inactive),> 100 µM (inactive),,> 100 µM (inactive),> 100 µM (inactive),> 100 µM (inactive)
Brc1ccc2c3c1[C@@H]1O[C@@H]1c1cccc(c1-3)[C@@H]1O[C@H]21,16.5 µM (inactive),26.9 µM (inactive),26.1 µM (inactive),22.1 µM (inactive),21.1 µM (inactive),5.09 µM (inactive),21.8 µM (inactive),13.8 µM (inactive),18.6 µM,15 µM (inactive),13.8 µM (inactive),24.2 µM (inactive),19.2 µM (inactive),17.6 µM (inactive),16.9 µM (inactive),27.5 µM (inactive),17.3 µM (inactive),19.8 µM (inactive),> 100 µM (inactive),17.2 µM (inactive)
c1ccc(C2=Nn3c(CCCCCCCCc4nnc5n4N=C(c4ccccc4)CS5)nnc3SC2)cc1,14.8 µM (inactive),39.1 µM (inactive),> 100 µM (inactive),40.6 µM (inactive),> 57.7 µM (inactive),22.6 µM (inactive),> 100 µM (inactive),> 66.1 µM (inactive),> 100 µM,> 100 µM (inactive),> 46.5 µM (inactive),23.1 µM (inactive),20.1 µM (inactive),> 100 µM (inactive),> 100 µM (inactive),25.9 µM (inactive),> 88.1 µM (inactive),14.5 µM (inactive),> 68.5 µM (inactive),46.8 µM (inactive)
COc1cccc(CCn2c(N)c(-c3ccccc3)c3ccc([N+](=O)[O-])cc3c2=O)c1,6.25 µM (inactive),1.82 µM (inactive),9.62 µM (inactive),5.25 µM (inactive),1.61 µM (inactive),11.4 µM (inactive),2.16 µM (inactive),3.3 µM (inactive),7.08 µM,21.9 µM (inactive),1.98 µM (inactive),16.2 µM (inactive),3.78 µM (inactive),17.5 µM (inactive),5.93 µM (inactive),5.07 µM (inactive),0.664 µM (active),2.99 µM (inactive),6.61 µM (inactive),11.9 µM (inactive)
COc1ccccc1NC(=S)Nc1cccc(C)n1,79.3 µM (inactive),> 100 µM (inactive),> 100 µM (inactive),,> 100 µM (inactive),> 100 µM (inactive),> 100 µM (inactive),> 100 µM (inactive),> 100 µM,> 100 µM (inactive),> 100 µM (inactive),18.4 µM (inactive),69 µM (inactive),> 100 µM (inactive),> 100 µM (inactive),> 100 µM (inactive),> 100 µM (inactive),1.07 µM (active),> 100 µM (inactive),42.4 µM (inactive)
N=c1ccn2c(n1)OC1C(OP(=O)(O)O)C(CO)OC12 (configuration not stated),9.77 µM (inactive),10.8 µM (inactive),0.575 µM (active),1.06 µM (active),> 100 µM (inactive),0.0467 µM (active),> 70.6 µM (inactive),2.06 µM (inactive),> 100 µM,> 100 µM (inactive),5.45 µM (inactive),99.5 µM (inactive),38.1 µM (inactive),> 83.4 µM (inactive),55.1 µM (inactive),> 53.6 µM (inactive),20.2 µM (inactive),> 88.3 µM (inactive),3.12 µM (inactive),10.4 µM (inactive)
CC(=O)NC(CCCCN(Cc1ccccc1)C(=O)N(CCCl)N=O)C(=O)NCc1ccccc1 (configuration not stated),0.895 µM (active),> 100 µM (inactive),22.1 µM (inactive),14.3 µM (inactive),21.3 µM (inactive),17.8 µM (inactive),42.2 µM (inactive),> 49.5 µM (inactive),> 60.8 µM,35.1 µM (inactive),17.4 µM (inactive),3.48 µM (inactive),7.21 µM (inactive),45.7 µM (inactive),> 100 µM (inactive),> 54.3 µM (inactive),34.8 µM (inactive),19.5 µM (inactive),1.1 µM (active),3.15 µM (inactive)
CCNc1nc2ccccc2nc1NCC,> 100 µM (inactive),> 100 µM (inactive),> 100 µM (inactive),> 100 µM (inactive),> 100 µM (inactive),> 100 µM (inactive),> 100 µM (inactive),> 100 µM (inactive),> 100 µM,> 100 µM (inactive),> 100 µM (inactive),> 100 µM (inactive),> 100 µM (inactive),> 100 µM (inactive),> 100 µM (inactive),> 100 µM (inactive),> 100 µM (inactive),> 100 µM (inactive),> 100 µM (inactive),> 100 µM (inactive)
Cc1ccc(S(=O)(=O)N(CC(O)COc2ccccc2)c2ccccc2Cl)cc1 (configuration not stated),18.4 µM (inactive),17.7 µM (inactive),11.8 µM (inactive),16.3 µM (inactive),17.1 µM (inactive),13.9 µM (inactive),16.8 µM (inactive),14.6 µM (inactive),15.8 µM,15.6 µM (inactive),16.3 µM (inactive),17.1 µM (inactive),24.3 µM (inactive),15.6 µM (inactive),14.7 µM (inactive),23.8 µM (inactive),15 µM (inactive),22.3 µM (inactive),13.9 µM (inactive),8.61 µM (inactive)
COc1ccc(CNc2nc3ccccc3nc2C(=O)O)cc1OC,> 100 µM (inactive),91.2 µM (inactive),> 100 µM (inactive),> 100 µM (inactive),30.7 µM (inactive),> 100 µM (inactive),> 100 µM (inactive),> 100 µM (inactive),83.8 µM,> 100 µM (inactive),> 100 µM (inactive),> 100 µM (inactive),> 100 µM (inactive),> 100 µM (inactive),> 100 µM (inactive),> 100 µM (inactive),91.6 µM (inactive),> 100 µM (inactive),> 100 µM (inactive),> 100 µM (inactive)
COC(=O)C1Cc2ccc(C)cc2C1=O (configuration not stated),> 100 µM (inactive),> 100 µM (inactive),> 100 µM (inactive),> 100 µM (inactive),> 100 µM (inactive),> 100 µM (inactive),> 100 µM (inactive),> 100 µM (inactive),> 100 µM,> 100 µM (inactive),> 100 µM (inactive),> 100 µM (inactive),> 100 µM (inactive),> 100 µM (inactive),50.7 µM (inactive),> 100 µM (inactive),> 100 µM (inactive),> 100 µM (inactive),> 100 µM (inactive),> 100 µM (inactive)
